# Assay results from article PMC2360244 (British Journal of Cancer, 2007).
# Key:
# [1] = system: A2780 ovarian carcinoma cells; assay: A2780 tumour cell proliferation, MTT colorimetric assay; format: cell-based, human; conditions: Homo sapiens, A2780, 96 h, 4 days, mean±s.d.
# Description: Control cells were treated with the combined respective vehicle.
# [2] = system: acetylated H3 in A2780 ovarian xenografts; assay: H3 acetylation in A2780 xenograft tumour tissue, immunofluorescence; format: in vivo, mice; conditions: 40 mpk p.o. once daily, tumours harvested 4 h after dosing, day 2
# Description: For immunofluorescent staining of AcH3, cryosections of A2780 ovarian carcinoma were fixed for 2 min in 4% neutral buffered formalin and subsequently for 10 min in ethanol (100%). After blocking with goat immunoglobulin (Jackson Immunoresearch Laboratories, Suffolk, UK) for 60 min, the sections were incubated with anti-AcH3 (Upstate, 1/5000) for 2 h and with goat anti-rabbit CY3-conjugated secondary antibody (1/500 Jackson Immunoresearch Laboratories) for 2 h. For negative controls, primary antibody was omitted. Nuclei were counterstained using Hoechst (1/2000) for 5 min and the cryosections were mounted in glycerin-gelatin. Images were taken using the Zeiss Axioplan 2 & Axiocam, and processed using Photoshop 7.0 and Image Tool Processing Kit. Representative images of each group (n=3) are shown. For TUNEL staining, cells were fixed with 4% paraformaldehyde for 5 min and then incubated for 1 h at 37°C in a solution containing 25 mM Tris, 200 mM sodium cacodylate, 1.25 mg ml^−1 BSA, 1.25 mM CoCl2, 10 mM dATP (Sigma Chemical Company), 2.5 mM fluorescein-dUTP (Amersham Pharmacia Biotech AB) and 50 U ml^−1 TdT (Roche, Vilvoorde, Belgium). Incorporated Fluorescein-dUTP was detected with a sheep antifluorescein peroxidase-conjugated antiserum (Boehringer Mannheim, 1/600, Roche, Vivoorde, Belgium). The peroxidase conjugate was visualised using amino ethylcarbazol. […]
# [3] = system: H460 lung carcinoma xenograft; assay: H460 lung xenograft, tumour growth; format: in vivo, mice; conditions: median tumour size at end of study
# Description: (§1) All mice used in the in vivo studies were athymic male NMRI nu/nu mice purchased from Janvier (France) and were treated according to the ethical guidelines prescribed by UKCCCR. A2780 ovarian, HCT116 colon and H460 lung carcinoma cells were injected s.c. (10^7 cells per 200 μl) into the inguinal region of Nude mice. […] Tumour size was determined using caliper measurement and tumour volume was determined by using the formula: TV=(a^2 × b)/2 (in which a represents the width and b the length).
# (§2) Mice were treated orally once daily (q.d.) between day 4 and 28 (A2780) or between day 4 and 32 (H460 and HCT116). (A) A2780 ovarian tumours were measured at least twice a week throughout the study, and results are represented as the median tumour size, expressed in mm^3, of each individual group (n=10). (B) Mice were treated orally q.d. at the indicated doses. Results are represented as the treated/control values (%) of the median tumour size (n=10) at the end of the study.
# [4] = system: A2780 ovarian carcinoma cells; assay: Cell-cycle analysis, propidium iodide staining and FACS; format: cell-based, human
# Description: Human A2780 ovarian carcinoma cells were seeded at 2 × 10^6 cells per 75-cm^2 flask and, after 24 h, incubated with the indicated concentration of test compound. To analyse cell-cycle distribution, sub-confluent cells were collected, centrifuged and washed with PBS. The cell pellets were re-suspended in citrate buffer and nuclei were stained with propidium iodide (Sigma-Aldrich, Bornem, Belgium) as described previously ([Vindelov et al, 1983]). Analysis was carried out using a BD-LSR flow cytometer (BD Biosciences, Erembodegem, Belgium) equipped with an argon laser (488 nm excitation). Cell-cycle profiles were analysed using WinList 3D version 4.0 and areas under the curve were calculated using ModFit LT version 3.1 (Verity Software House Inc.).
# DNA content of nuclei was evaluated using propidium iodide staining followed by FACS analysis, and the number of cells in sub-G1, G1, S and G2M phase was calculated as a percentage of control. Results are expressed as % of total cells and a representative experiment out of three is shown.
# [5] = system: HDAC isotypes in partially purified extract from rat liver (MAL, unselective); conditions: read-out: Liver extract MAL unselective IC50, substrate MAL
# Description: After centrifugation, the cleared extract was used for immunoprecipitation of HDAC1. […] Incubation was performed for 45 min at 37°C (immunoprecipitates) or 30 min at room temperature (HeLa nuclear extract). Before addition of substrate, HDAC inhibitors were added at increasing concentrations and preincubated for 10 min at room temperature. After incubation, the reaction was quenched with 35 μl stop buffer (1 M HCl and 0.4 M acetic acid). Released [^3H]acetic acid was extracted with 800 μl ethyl acetate and quantified by scintillation counting. Equal amounts of HDAC1 were immunoprecipitated as indicated by western blot analysis. Histone deacetylase 1 activity results are presented as mean±s.d. of three independent experiments on a single lysate. […] Finally, we measured the activities of different HDAC isotypes present in partially purified extract from rat liver using the fluorescent HDAC substrates MAL (unselective), B61 (selective for HDAC1, and to some extent also converted by HDAC3) and B12 (selective for HDAC6).
# [6] = system: microvessel outgrowth from rat aortic rings; assay: Rat aortic ring assay (angiogenesis); format: cell-based, Sprague-Dawley rats; conditions: 192 h, 300 nM, 8 days, compared to controls, mean±s.e.m., read-out: inhibition of total microvessel area
# Description: Briefly, thoracic aorta were freshly isolated from 1- to 2-month-old Sprague–Dawley rats and 1-mm-long sections (aortic rings) were embedded in fibrin gel clots in six-well plates. […] Test compounds were added at the indicated concentrations at day 0 and again together with fresh media on day 2 and day 5 of culture. The ability of experimental compounds to inhibit microvessel outgrowth was compared directly with vehicle-treated control rings. […] Microvessel area, expressed as pixels^2, was determined for each aortic ring and the per cent inhibition of microvessel area compared to control rings was calculated using the mean values for each treatment group. Statistical differences between experimental groups (five independent rings) were analysed by ANOVA and Dunnett's t-test, with a P-value of <0.05 or less considered statistically significant.
# (B) Rat Aortic Ring Assays were performed as described in the Methods section.
# [7] = system: lung, breast, colon, prostate and ovarian tumour cell lines; assay: cells; conditions: Homo sapiens, 96 h, read-out: IC50 values, cell proliferation of solid tumour cell lines (range over panel), lung, breast, colon, prostate and ovarian tumour cell lines; 4-day incubation
# Description: The effect of HDAC inhibitors on cell proliferation was measured using an MTT (3-(4,5-dimethyl-2-thiazolyl)-2,5-diphenyl-2H-tetrazolium bromide)-based assay (Serva, Heidelberg, Germany). Cells were seeded in Falcon or NUNC 96-well culture plates (Life Technologies, Merelbeke, Belgium) in 100 μl culture medium and allowed to adhere to plastic for 18–48 h. Test compounds were dissolved in DMSO and further dilutions were made in culture medium, with final concentrations of DMSO never exceeding 0.1% (v v^−1), and incubated for 4 days. Proliferation of NSCLC was assessed using Alamar Blue-based assay. Cells were seeded in COSTAR 384-well culture plates in 45 μl culture medium and allowed to adhere to plastic for 24 h. Alamar blue was added after 72 h, with the exception of HCC-15, HCC-44, NCI-H2122 and NCI-H460, where Alamar blue was added after 90 h and OD values were measured at 4 days following compound exposure. Data are presented as mean±s.d. of three independent experiments.
# [8] = system: HCT116 colon carcinoma xenograft; assay: HCT116 colon xenograft, tumour growth; format: in vivo, mice; conditions: median tumour size at end of study
# Description: as §1, §2
compound,measurement,setting,value
O=C(NO)c1cnc(N2CCN(S(=O)(=O)c3ccc4ccccc4c3)CC2)nc1 [R306465],IC50,[1],39 ± 17 nM
same,H3 acetylation in tumour tissue,[2],maximal and homogeneous increase in H3 acetylation
same,T/C values (%) H460 lung,[3]; 10 mpk p.o. q.d. day 4 to 32,56%
same,T/C values (%) H460 lung,[3]; 20 mpk p.o. q.d. day 4 to 32,64%
same,T/C values (%) H460 lung,[3]; 40 mpk p.o. q.d. day 4 to 32,31%
same,"G0–G1, % of total cells","[4]; 0.1 μM, 24 h",44.6%
same,"G2–M, % of total cells","[4]; 0.1 μM, 24 h",28.3%
same,"S-phase, % of total cells","[4]; 0.1 μM, 24 h",27.1%
same,"G0–G1, % of total cells","[4]; 0.1 μM, 48 h",64.4%
same,"G2–M, % of total cells","[4]; 0.1 μM, 48 h",17.0%
same,"S-phase, % of total cells","[4]; 0.1 μM, 48 h",18.6%
same,"G0–G1, % of total cells","[4]; 0.3 μM, 24 h",76.5%
same,"G2–M, % of total cells","[4]; 0.3 μM, 24 h",7.8%
same,"S-phase, % of total cells","[4]; 0.3 μM, 24 h",15.7%
same,"G0–G1, % of total cells","[4]; 0.3 μM, 48 h",67.2%
same,"G2–M, % of total cells","[4]; 0.3 μM, 48 h",14.9%
same,"S-phase, % of total cells","[4]; 0.3 μM, 48 h",17.9%
same,"G0–G1, % of total cells","[4]; 1 μM, 24 h",55.4%
same,"G2–M, % of total cells","[4]; 1 μM, 24 h",39.2%
same,"S-phase, % of total cells","[4]; 1 μM, 24 h",5.4%
same,"G0–G1, % of total cells","[4]; 1 μM, 48 h",45.5%
same,"G2–M, % of total cells","[4]; 1 μM, 48 h",44.5%
same,"S-phase, % of total cells","[4]; 1 μM, 48 h",10.0%
same,concentration at which decrease in S phase with parallel increase in G1 phase was observed,[4]; 24 h incubation,300 nM
same,concentration at which increase in the sub-G1 fraction was observed,[4]; 24 h incubation,1 µM
same,concentration from which increase in sub-G1 phase was observed,[4]; 48 h incubation,≥ 100 nM
same,IC50,[5],886 ± 85 nM
same,inhibition at 0.3 µM,[6],67 ± 7%
same,IC50,[7],30 to 300 nM
same,T/C values (%) HCT116 colon,[8]; 10 mpk p.o. q.d. day 4 to 32,76%
same,T/C values (%) HCT116 colon,[8]; 20 mpk p.o. q.d. day 4 to 32,75%
same,T/C values (%) HCT116 colon,[8]; 30 mpk p.o. q.d. day 4 to 32,57%
same,T/C values (%) HCT116 colon,[8]; 40 mpk p.o. q.d. day 4 to 32,34%
